# Measurements: patent publication EP0319906A2, “Novel quinoline derivatives, processes for preparation thereof and antibacterial agent containing them” (Dainippon Pharmaceutical Co., Ltd., priority 1987, dated 1989)
# Where two headings read alike, the source gives them in different places.
# Key:
# [1] = system: M. orale CH-19299; assay: Antimycoplasma activity, twofold agar dilution MIC; format: cell-based; details: po, 48 h, read-out: minimum inhibitory concentrations (MIC)
# Description: (§1) The figures in the table show minimum inhibitory concentrations (MIC), (μg/ml), calculated for free base. Minimum inhibitory concentrations (MIC) were determined by the twofold agar dilution method. The media used were Chanock broth and agar [PPLD broth and agar (Difco) supplemented with 20 % horse serum and 10 % fresh yeast extract]. A 2-3 day broth culture of organisms was diluted with Chanock broth to a cell density of about 10^6 cells/ml. One loopful (about […]) of the organism dilution was spotted onto 10-ml drug containing Chanock agar in petri dishes using a multiple inoculator ([…] International). […] Incubation was performed anaerobically using the […] anaerobic system (BBL) for M. buccale, M. fermentans, M. hominis, M. orale and M. salivarium, and aerobically for other Mycoplasma spp. The MIC was defined as the lowest compound concentration at which no growth of organism was detected.
# [2] = system: A. laidlawii PG-8; assay: Antimycoplasma activity, twofold agar dilution MIC; format: cell-based; details: Acholeplasma laidlawii, PG8, 48 h, read-out: minimum inhibitory concentrations (MIC)
# Description: as §1
# [3] = system: M. salivarium PG-20; assay: Antimycoplasma activity, twofold agar dilution MIC; format: cell-based; details: 48 h, read-out: minimum inhibitory concentrations (MIC)
# Description: as §1
# [4] = system: M. arginini G-230; assay: Antimycoplasma activity, twofold agar dilution MIC; format: cell-based; details: 48 h, read-out: minimum inhibitory concentrations (MIC)
# Description: as §1
# [5] = system: M. hominis PG-21; assay: Antimycoplasma activity, twofold agar dilution MIC; format: cell-based; details: Metamycoplasma hominis, PG21, 48 h, read-out: minimum inhibitory concentrations (MIC)
# Description: as §1
# [6] = system: M. buccale CH-20249; assay: Antimycoplasma activity, twofold agar dilution MIC; format: cell-based; details: 48 h, read-out: minimum inhibitory concentrations (MIC)
# Description: as §1
# [7] = system: M. fermentans PG-18; assay: Antimycoplasma activity, twofold agar dilution MIC; format: cell-based; details: Mycoplasmopsis fermentans, PG18, 48 h, read-out: minimum inhibitory concentrations (MIC)
# Description: as §1
# [8] = system: M. pneumoniae Mac; assay: Antimycoplasma activity, twofold agar dilution MIC; format: cell-based; details: Mycoplasmoides pneumoniae, 168 h, read-out: minimum inhibitory concentrations (MIC)
# Description: as §1
# [9] = system: M. hyorhinis BST-7; assay: Antimycoplasma activity, twofold agar dilution MIC; format: cell-based; details: Mesomycoplasma hyorhinis, BST7, 48 h, read-out: minimum inhibitory concentrations (MIC)
# Description: as §1
# [10] = system: C. Trachomatics G/ur 1317; assay: Antichlamydia activity, MIC in McCoy cells (inclusion bodies); format: cell-based; details: read-out: minimum inhibitory concentrations (MIC)
# Description: (§2) The figures in the table show minimum inhibitory concentrations (MIC), (μg/ml), calculated for free base. Minimum inhibitory concentrations (MIC) were determined as follows. […] The cells were trypsinized and suspended in the same culture medium at a cell concentration of 1-2 x 10^5 cells/ml. One ml of the cell suspension was pipetted into flat-bottomed plastic tubes (14 mm in diameter) containing a cover slip (12 mm in diameter). The tubes were incubated in 5 % CO2-air at 36 °C for 20 hours. One-half ml of a chlamydial suspension (ca. 1-4 x 103 inclusion body forming units) was added into each tube, which was then centrifuged at 1500 x g for 60 minutes. The tubes were incubated for 1 hour at 36 °C. […] After further incubation at 36 °C for 40-48 hours, the cells on the cover glasses were stained with the Giemsa's solution. […] The MIC was defined as the lowest drug concentration where there were no inclusion bodies in all the cells on the cover slip.
# [11] = system: C. Trachomatics G/ur 1448; assay: as above; format: cell-based; details: read-out: minimum inhibitory concentrations (MIC)
# Description: as §2
# [12] = system: C. Trachomatics G/ur 1242; assay: as above; format: cell-based; details: read-out: minimum inhibitory concentrations (MIC)
# Description: as §2
# [13] = system: C. Trachomatics G/ur 931; assay: as above; format: cell-based; details: read-out: minimum inhibitory concentrations (MIC)
# Description: as §2
# [14] = system: S. aureus Terajima; assay: In vitro antibacterial activity, twofold agar-dilution MIC; format: cell-based; details: Staphylococcus aureus, read-out: minimum inhibitory concentrations (MIC)
# Description: (§3) The figures in the table show minimum inhibitory concentrations (MIC) (µg/ml), calculated for free base. […] One loopful of an overnight culture of test organisms in Mueller-Hinton broth was inoculated onto 10 ml drug- containing agar layers in petri dishes. Bacterial inocula contained approximately 10⁶ colonyl-forming units. […] The MIC was defined as the lowest drug concentration which prevented visible bacterial growth.
# [15] = system: S. epidermidis No. 8; assay: as above; format: cell-based; details: Staphylococcus epidermidis, read-out: minimum inhibitory concentrations (MIC)
# Description: as §3
# [16] = system: S. pyogenes A65; assay: as above; format: cell-based; details: Streptococcus pyogenes, read-out: minimum inhibitory concentrations (MIC)
# Description: as §3
# [17] = system: E. coli NIHJ JC-2; assay: as above; format: cell-based; details: Escherichia coli, read-out: minimum inhibitory concentrations (MIC)
# Description: as §3
# [18] = system: S. aureus No. 80; assay: as above; format: cell-based; details: Staphylococcus aureus, read-out: minimum inhibitory concentrations (MIC)
# Description: as §3
# [19] = system: S. aureus 209 JC-1; assay: as above; format: cell-based; details: Staphylococcus aureus, read-out: minimum inhibitory concentrations (MIC)
# Description: as §3
# [20] = system: E. coli P-5101; assay: as above; format: cell-based; details: Escherichia coli, read-out: minimum inhibitory concentrations (MIC)
# Description: as §3
# [21] = system: P. aeruginosa 12; assay: as above; format: cell-based; details: read-out: minimum inhibitory concentrations (MIC)
# Description: as §3
# [22] = system: S. marcescens S-9; assay: as above; format: cell-based; details: Serratia marcescens, read-out: minimum inhibitory concentrations (MIC)
# Description: as §3
# [23] = in vivo; details: mouse, po, orally given to male mice (ddY), dead mice counted after 7 days, Behrens-Kaerber method, read-out: LD₅₀
# Description: A suspension containing each of compounds of this invention in various concentrations was orally given to male mice (ddY) at a dose of 0.1 ml per 10 g of body weight. The number of dead mice was counted after 7 days, and the value of median lethal dose (LD₅₀, mg/kg) was calculated in accordance with the Behrens-Kaerber method.
# [24] = C. Trachomatics G/ur 1317, McCoy cells, 36 °C for 40-48 hours, calculated for free base
# [25] = C. Trachomatics G/ur 1448, McCoy cells, 36 °C for 40-48 hours, calculated for free base
# [26] = C. Trachomatics G/ur 1242, McCoy cells, 36 °C for 40-48 hours, calculated for free base
# [27] = C. Trachomatics G/ur 931, McCoy cells, 36 °C for 40-48 hours, calculated for free base
# [28] = S. aureus Terajima, Mueller-Hinton agar, 20-hour incubation at 37 °C, calculated for free base
# [29] = S. epidermidis No. 8, Mueller-Hinton agar, 20-hour incubation at 37 °C, calculated for free base
# [30] = S. pyogenes A65, Mueller-Hinton agar, 20-hour incubation at 37 °C, calculated for free base
# [31] = NIHJJC2, E. coli NIHJ JC-2, Mueller-Hinton agar, 20-hour incubation at 37 °C, calculated for free base
# [32] = S. aureus No. 80, Mueller-Hinton agar, 20-hour incubation at 37 °C, calculated for free base
# [33] = 209JC1, S. aureus 209 JC-1, Mueller-Hinton agar, 20-hour incubation at 37 °C, calculated for free base
# [34] = P5101, E. coli P-5101, Mueller-Hinton agar, 20-hour incubation at 37 °C, calculated for free base
# [35] = Pseudomonas aeruginosa, P. aeruginosa 12, Mueller-Hinton agar, 20-hour incubation at 37 °C, calculated for free base
# [36] = S9, S. marcescens S-9, Mueller-Hinton agar, 20-hour incubation at 37 °C, calculated for free base
smiles,measurement,setting,value
"C[C@@H]1CN(c2c(F)cc3c(=O)c(C(=O)O)cn(C4CC4)c3c2F)C[C@H](C)N1 [Compound C, 1-cyclopropyl-6,8-difluoro-7-(cis-3,5-dimethyl-1-piperazinyl)-1,4-dihydro-4-oxoquinoline-3-carboxylic acid]",MIC,"[1]; M. orale CH-19299, Chanock agar, 37 °C for 2 days, anaerobically, calculated for free base",0.78 µg/mL
same,MIC,"[2]; A. laidlawii PG-8, Chanock agar, 37 °C for 2 days, aerobically, calculated for free base",0.39 µg/mL
same,MIC,"[3]; M. salivarium PG-20, Chanock agar, 37 °C for 2 days, anaerobically, calculated for free base",0.78 µg/mL
same,MIC,"[4]; M. arginini G-230, Chanock agar, 37 °C for 2 days, aerobically, calculated for free base",0.39 µg/mL
same,MIC,"[5]; M. hominis PG-21, Chanock agar, 37 °C for 2 days, anaerobically, calculated for free base",0.2 µg/mL
same,MIC,"[6]; M. buccale CH-20249, Chanock agar, 37 °C for 2 days, anaerobically, calculated for free base",0.2 µg/mL
same,MIC,"[7]; M. fermentans PG-18, Chanock agar, 37 °C for 2 days, anaerobically, calculated for free base",0.1 µg/mL
same,MIC,"[8]; M. pneumoniae Mac, Chanock agar, 37 °C for 7 days, aerobically, calculated for free base",0.2 µg/mL
same,MIC,"[9]; M. hyorhinis BST-7, Chanock agar, 37 °C for 2 days, aerobically, calculated for free base",0.1 µg/mL
same,MIC,[10]; [24],0.2 µg/mL
same,MIC,[11]; [25],0.2 µg/mL
same,MIC,[12]; [26],0.2 µg/mL
same,MIC,[13]; [27],0.2 µg/mL
same,MIC,[14]; [28],0.1 µg/mL
same,MIC,[15]; [29],0.1 µg/mL
same,MIC,[16]; [30],0.78 µg/mL
same,MIC,[17]; [31],0.0125 µg/mL
same,MIC,[18]; [32],0.1 µg/mL
same,MIC,[19]; [33],0.1 µg/mL
same,MIC,[20]; [34],0.0125 µg/mL
same,MIC,[21]; [35],0.78 µg/mL
same,MIC,[22]; [36],0.2 µg/mL
"Cc1c(F)c(N2CCNCC2)c(F)c2c1c(=O)c(C(=O)O)cn2C1CC1 [Compound 2, 1-cyclopropyl-6,8--difluoro-5-methyl-7-(1-piperazinyl)-1,4-dihydro-4-oxoquinoline-3-carboxylic acid]",MIC,[10]; [24],0.1 µg/mL
same,MIC,[11]; [25],0.1 µg/mL
same,MIC,[12]; [26],0.1 µg/mL
same,MIC,[13]; [27],0.05 µg/mL
same,MIC,[14]; [28],0.025 µg/mL
same,MIC,[15]; [29],0.025 µg/mL
same,MIC,[16]; [30],0.39 µg/mL
same,MIC,[17]; [31],0.0063 µg/mL
same,MIC,[18]; [32],0.0125 µg/mL
same,MIC,[19]; [33],0.025 µg/mL
same,MIC,[20]; [34],0.0063 µg/mL
same,MIC,[21]; [35],0.2 µg/mL
same,MIC,[22]; [36],0.1 µg/mL
same,LD50 at 168 h,[23],> 2000 mg/kg
"Cl.O=C(O)c1cn(C2CC2)c2cc(N3CCNCC3)c(F)cc2c1=O [Compound A, 1-cyclopropyl-6-fluoro-7-(1-piperazinyl)-1,4-dihydro-4-oxoquinoline-3-carboxylic acid hydrochloride]",MIC,[1],1.56 µg/mL
same,MIC,[2],0.39 µg/mL
same,MIC,[3],3.13 µg/mL
same,MIC,[4],0.39 µg/mL
same,MIC,[5],1.56 µg/mL
same,MIC,[6],0.39 µg/mL
same,MIC,[7],0.2 µg/mL
same,MIC,[8],0.78 µg/mL
same,MIC,[9],0.39 µg/mL
same,MIC,[10],2 µg/mL
same,MIC,[11],1 µg/mL
same,MIC,[12],1 µg/mL
same,MIC,[13],1 µg/mL
same,MIC,[14]; 20 h,0.1 µg/mL
same,MIC,"[15]; NO.8, 20 h",0.1 µg/mL
same,MIC,"[16]; A65, 20 h",0.2 µg/mL
same,MIC,"[17]; NIHJJC2, 20 h",0.0063 µg/mL
same,MIC,"[18]; NO.80, 20 h",0.39 µg/mL
same,MIC,"[19]; 209JC1, 20 h",0.1 µg/mL
same,MIC,"[20]; P5101, 20 h",0.0063 µg/mL
same,MIC,"[21]; Pseudomonas aeruginosa, 12, 20 h",0.1 µg/mL
same,MIC,"[22]; S9, 20 h",0.05 µg/mL
